In patent US7511034B2, “Dialkylhydroxybenzoic acid derivatives containing metal chelating groups and their therapeutic uses” (Samsung Electronics Co., Ltd., priority 2001, dated 2009):

What was measured:
mice = details: oral administration; cited from earlier work
rats = details: oral administration; cited from earlier work
[1] = test system: ischemic neuronal degeneration; assay: Protection of cell damage by ischemia (in vivo), hippocampus Cresyl violet staining; set-up: species or system Mongolian gerbils (Meriones unguiculatus); details: gerbils, 60 mg/kg P.O., 4 days reperfusion; for protective effect: 5 min carotid occlusion, pre-treated groups
Procedure: Male Mongolian gerbils (Meriones unguiculatus) weighing 80-88 g were used in the present study. Each animal was medicated P.O. with vehicle, Ebselen or various test compounds (60 mg/kg in 10% DMSO), after 30 minutes ischemic injury, respectively. 20 animals were allotted into every group. The animals were placed under general anesthesia with a mixture of 2.5% isoflurane in 33% oxygen and 67% nitrous oxide. A midline ventral incision was made in the neck. Both common carotid arteries were isolated, freed of nerve fibers, and occluded using nontraumatic aneurysm clips. Complete interruption of blood flow was confirmed by observing the central artery in eyeballs using ophthalmoscope. After five minutes of occlusion, the aneurysm clips were removed from both common carotid arteries. Restoration of blood flow (reperfusion) was observed directly under the microscope. Sham-operated controls were subjected to the same surgical procedures except that common carotid arteries were not occluded. Body temperature was monitored and maintained at 37° C.±0.5° C. during surgery and during the immediate postoperative period until the animals recovered fully from anesthesia. At the designated reperfusion time (4 days), operated animals and sham animals were killed.
Animals were perfused transcardially with phosphate-buffered saline (PBS, pH 7.4) followed by 4% paraformaldehyde in 0.1 M phosphate buffer (pH 7.4) at 4 days (n=7) after surgery. The brains were removed, and postfixed in the same fixative for 4 hours. The brain tissues were cryoprotected by infiltration with 30% sucrose overnight. Cornoy fixed specimens were cut into 30 μm sections on a cryostat. The sections were sequentially stained by Cresyl violet dye.
Images of staining in the hippocampus of each animal were captured with an Applescanner. […] All data obtained from the quantitative data were analyzed using one-way ANOVA to determine statistical significance. Bonferroni's test was used for post-hoc comparisons. P values below 0.05 or 0.01 were considered statistically significant.

[2] = even in the presence of an excess of glutathione (GSH); cited from earlier work
[3] = test system: multilayer liposome (soybean phosphatidylcholine); assay: Inhibition of lipid peroxidation (liposome oxidation, TBA absorbance at 532 nm); type: biochemical; details: liposome oxidation initiated by FeCl2, 37° C., 15 minutes; read-out: Inhibitor Concentration (IC50)
Procedure: The compounds of the present invention were tested for antioxidizing effect in terms of the repression of the radical chain reaction of a multilayer liposome.
The liposome was prepared as followings: 30 mg of commercially available soybean phosphatidylcholine (PC, Sigma Chemical Co., U.S.A.) was dissolved in 1 mL of ethanol, and 200 μL of the ethanol/PC solution was added to 10 mL of 10 mM Tris buffer including 50 mM NaCl (pH 7.0) with stirring.
The ability of a compound to inhibit oxidation of the liposome was evaluated as followings: To 400 μL of the liposomes were added the test compound (in buffer or ethanol) and histidine-FeCl3 (167:33 μM final). Oxidation was initiated by the addition of FeCl2 (33 μM final prepared in nitrogen purged water). The mixtures was shaken at 37° C. for 15 minutes. Thereafter, tubes were treated with 1 mL of 0.67% thiobabituric acid (TBA):10% trichloroacetic acid (2:1, v/v) in 0.25 N HCl solution, containing 1.5% (v/v) t-butylhydroxytoluene (BHT) to terminate oxidation. The aliquots were heated to 100° C. for 20 minutes. After ice cooling, 1 mL of chloroform was added to 1 mL supernatant from tubes and tubes were centrifuged. The absorbances of the resulting supernatant were measured at 532 nm (see: Table below).

[4] = Acute toxicity LD50 in rats; details: rat, in vivo

IC50 [3] [µM] | SMILES | further results
11.1 | CCOC(=O)c1csc(NC(=O)c2cc(C(C)(C)C)c(O)c(C(C)(C)C)c2)n1 [Example 5, 2-(3,5-Di-tert-butyl-4-hydroxy-benzoylamino)-thiazole-4-carboxylic acid ethyl ester] | –
122 | Cc1cc(C(=O)Nc2ccccn2)cc(C)c1O [Example 6, 4-Hydroxy-3,5-dimethyl-N-pyridin-2-yl-benzamide] | –
7.79 | CC(C)(C)c1cc(C(=O)Nc2ccc(O)c3ncccc23)cc(C(C)(C)C)c1O [Example 3, 3,5-Di-tert-butyl-4-hydroxy-N-(8-hydroxyyquinolin-5-yl) benzamide] | –
300 | Cc1cc(C(=O)NCc2ccccn2)cc(C)c1O [Example 7, 4-Hydroxy-3,5-dimethyl-N-pyridine-2-yl methyl benzamide] | –
10.2 | Cc1c(C)c2c(c(C)c1O)CCC(C)(C(=O)O)O2 (stereo not shown) [Trolox, reference compound] | –

Continued, compound first:

SMILES | IC50 [3] [µM] | further results
O=c1c2ccccc2[se]n1-c1ccccc1 [Ebselen] | – | LD50 (mice): ≥ 6,810 mg/kg; LD50 (rats): ≥ 6,810 mg/kg; protective effect [1]: 69%; solubility in water [2]: very little soluble in water
CC(C)(C)c1cc(C(=O)NCc2ccccn2)cc(C(C)(C)C)c1O [Example 2, 3,5-Di-tert-butyl-4-hydroxy-N-pyridin-2-yl methyl benzamide] | 12.7 | –
CC(C)(C)c1cc(C(=O)Nc2ccccn2)cc(C(C)(C)C)c1O [Example 1, 3,5-Di-tert-butyl-4-hydroxy-N-pyridin-2-yl-benzamide] | 11.9 | –
CC(C)(C)c1cc(C(=O)Nc2nccs2)cc(C(C)(C)C)c1O [Example 4, 3,5-Di-tert-butyl-4-hydroxy-N-thiazol-2-yl benzamide] | 9.69 | LD50 ([4]; ip, intraperitoneal administration in rats): ≥ 800 mg/kg; LD50 ([4]; oral administration in rats): ≥ 6950 mg/kg; protective effect [1]: 91%; neuroprotective effects against ischemic neuronal degeneration compared with Ebselen [1]: more neuroprotective effects against ischemic neuronal degeneration than those of Ebselen
